Reference: PubChem BioAssay (NCI)
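Assay format: 96-well plates, 48-hour exposure. At the TGI there is no net growth.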

Key:
Experiment in all cases: DTP human tumour cell line panel, 48 h
[1] = tested on: COLO 205 colon
[2] = tested on: SK-MEL-2 melanoma
[3] = tested on: HL-60(TB) leukemia
[4] = tested on: MOLT-4 leukemia
[5] = tested on: TK-10 renal
[6] = tested on: A549 NSCLC
[7] = tested on: SW-620 colon
[8] = tested on: IGROV1 ovarian
[9] = tested on: OVCAR-5 ovarian
[10] = tested on: OVCAR-3 ovarian
[11] = tested on: SK-MEL-28 melanoma
[12] = tested on: SN12C renal
[13] = tested on: PC-3 prostate
[14] = tested on: ACHN renal
[15] = tested on: HT29 colon
[16] = tested on: CCRF-CEM leukemia
[17] = tested on: MDA-N
[18] = tested on: MCF7 breast
[19] = tested on: SF-539 CNS
[20] = tested on: NCI-H23 lung
[21] = tested on: HCT-116 colon
[22] = tested on: NCI-H226 lung
[23] = tested on: OVCAR-8 ovarian
[24] = tested on: MDA-MB-435
[25] = tested on: HS 578T breast
[26] = tested on: OVCAR-4 ovarian
[27] = tested on: MDA-MB-231 breast
[28] = tested on: LOX IMVI melanoma
[29] = tested on: SF-268 CNS
[30] = tested on: A498 renal
[31] = tested on: M14 melanoma
[32] = tested on: EKVX NSCLC
[33] = tested on: BT-549 breast
[34] = tested on: SF-295 CNS
[35] = tested on: SK-MEL-5 melanoma
[36] = tested on: HCT-15 colon
[37] = tested on: UACC-257 melanoma
[38] = tested on: NCI/ADR-RES ovarian
[39] = tested on: SK-OV-3 ovarian
[40] = tested on: DU-145 prostate
[41] = tested on: HOP-92 NSCLC
[42] = tested on: U251 CNS
[43] = tested on: NCI-H460 lung
[44] = tested on: MALME-3M melanoma
[45] = tested on: UO-31 renal
[46] = tested on: HCC-2998 colon
[47] = tested on: K-562 leukemia
[48] = tested on: NCI-H522 lung
[49] = tested on: KM12 colon
[50] = tested on: UACC-62 melanoma
[51] = tested on: CAKI-1 renal
[52] = tested on: SNB-75 CNS
[53] = tested on: 786-0 renal
[54] = tested on: T-47D breast
[55] = tested on: SNB-19 CNS
[56] = tested on: RPMI-8226 leukemia
[57] = tested on: SR leukemia
[58] = tested on: HOP-62 NSCLC
[59] = tested on: RXF 393 renal

SMILES: O=C1C(OC(=O)c2ccccc2)=C(c2ccc(O)cc2)C(=O)C(OC(=O)c2ccccc2)=C1c1ccc(O)cc1
- TGI [1]: > 100 µM
- TGI [2]: > 100 µM
- TGI [3]: > 100 µM
- TGI [4]: > 100 µM
- TGI [5]: > 100 µM
- TGI [6]: > 100 µM
- TGI [7]: > 100 µM
- TGI [8]: > 100 µM
- TGI [9]: > 100 µM
- TGI [10]: > 100 µM
- TGI [11]: > 100 µM
- TGI [12]: > 100 µM
- TGI [13]: > 100 µM
- TGI [14]: > 100 µM
- TGI [15]: > 100 µM
- TGI [16]: > 100 µM
- TGI [17]: > 100 µM
- TGI [18]: > 100 µM
- TGI [19]: > 100 µM
- TGI [20]: > 100 µM
- TGI [21]: > 100 µM
- TGI [22]: > 100 µM
- TGI [23]: > 100 µM
- TGI [24]: > 100 µM
- TGI [25]: > 100 µM
- TGI [26]: > 100 µM
- TGI [27]: > 100 µM
- TGI [28]: > 100 µM
- TGI [29]: > 100 µM
- TGI [30]: > 100 µM
- TGI [31]: > 100 µM
- TGI [32]: > 100 µM
- TGI [33]: > 100 µM
- TGI [34]: > 100 µM
- TGI [35]: > 100 µM
- TGI [36]: > 100 µM
- TGI [37]: > 100 µM
- TGI [38]: > 100 µM
- TGI [39]: > 100 µM
- TGI [40]: > 100 µM
- TGI [41]: > 100 µM
- TGI [42]: > 100 µM
- TGI [43]: > 100 µM
- TGI [44]: > 100 µM
- TGI [45]: > 100 µM
- TGI [46]: > 100 µM
- TGI [47]: > 100 µM
- TGI [48]: > 100 µM
- TGI [49]: > 100 µM
- TGI [50]: > 100 µM
- TGI [51]: > 100 µM
- TGI [52]: > 100 µM
- TGI [53]: > 100 µM
- TGI [54]: > 100 µM
- TGI [55]: > 100 µM
- TGI [56]: > 100 µM

SMILES: CCOC(=O)C1CCCN1C(=O)c1ccccc1Cl (stereo not given)
- TGI [3]: > 100 µM
- TGI [4]: > 100 µM
- TGI [5]: > 100 µM
- TGI [6]: > 100 µM
- TGI [7]: > 100 µM
- TGI [8]: > 100 µM
- TGI [9]: > 100 µM
- TGI [10]: > 100 µM
- TGI [11]: > 100 µM
- TGI [12]: > 100 µM
- TGI [57]: > 100 µM
- TGI [14]: > 100 µM
- TGI [15]: > 100 µM
- TGI [16]: > 100 µM
- TGI [17]: > 100 µM
- TGI [18]: > 100 µM
- TGI [19]: > 100 µM
- TGI [20]: > 100 µM
- TGI [21]: > 100 µM
- TGI [22]: > 100 µM
- TGI [23]: > 100 µM
- TGI [58]: > 100 µM
- TGI [24]: > 100 µM
- TGI [25]: > 100 µM
- TGI [27]: > 100 µM
- TGI [28]: > 100 µM
- TGI [29]: > 100 µM
- TGI [30]: > 100 µM
- TGI [31]: > 100 µM
- TGI [32]: > 100 µM
- TGI [33]: > 100 µM
- TGI [59]: > 100 µM
- TGI [34]: > 100 µM
- TGI [35]: > 100 µM
- TGI [36]: > 100 µM
- TGI [37]: > 100 µM
- TGI [38]: > 100 µM
- TGI [40]: > 100 µM
- TGI [41]: > 100 µM
- TGI [42]: > 100 µM
- TGI [43]: > 100 µM
- TGI [44]: > 100 µM
- TGI [45]: > 100 µM
- TGI [46]: > 100 µM
- TGI [47]: > 100 µM
- TGI [48]: > 100 µM
- TGI [49]: > 100 µM
- TGI [50]: 88.3 µM
- TGI [51]: > 100 µM
- TGI [52]: > 100 µM
- TGI [53]: > 100 µM
- TGI [54]: > 100 µM
- TGI [55]: > 100 µM
- TGI [56]: > 100 µM
